Data from patent US9150632B2 (Indiana University Research and Technology Corporation, priority 2009, dated 2015).
Non-standard residues stand in square brackets, D forms with d. Residues, ends and D or L forms follow the SMILES beside them. Dab = NCC[C@H](N)C(=O)O; Aib = CC(C)(N)C(=O)O

target: T1, glucagon receptor (Homo sapiens, UniProt P47871); test: Functional assay-cAMP synthesis, luciferase reporter in HEK293 cells, glucagon receptor; format: cell-based; parameters: % activity: concentration or dose not given beside the values; settings: Table 26, glucagon receptor
T1 construct: expressed in transfected cells; host or cells: HEK293
T1 sequence (P47871 26-477): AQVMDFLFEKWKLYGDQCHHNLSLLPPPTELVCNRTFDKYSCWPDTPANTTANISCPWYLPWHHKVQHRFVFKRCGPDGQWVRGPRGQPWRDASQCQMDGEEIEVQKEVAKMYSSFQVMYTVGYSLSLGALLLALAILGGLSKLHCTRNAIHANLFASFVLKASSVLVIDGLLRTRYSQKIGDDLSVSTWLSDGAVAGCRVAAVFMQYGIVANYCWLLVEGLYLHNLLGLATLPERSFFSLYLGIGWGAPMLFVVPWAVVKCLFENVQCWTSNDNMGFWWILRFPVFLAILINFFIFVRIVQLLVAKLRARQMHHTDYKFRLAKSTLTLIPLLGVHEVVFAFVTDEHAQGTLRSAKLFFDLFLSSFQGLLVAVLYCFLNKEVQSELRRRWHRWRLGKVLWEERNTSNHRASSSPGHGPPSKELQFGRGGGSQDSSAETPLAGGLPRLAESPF

SMILES | % activity
CSCC[C@H](NC(=O)[C@H](CC(C)C)NC(=O)[C@H](Cc1c[nH]c2ccccc12)NC(=O)[C@H](C)NC(=O)[C@@H](NC(=O)[C@H](Cc1ccccc1)NC(=O)[C@H](CC(=O)O)NC(=O)[C@H](C)NC(=O)[C@H](C)NC(=O)[C@H](CCCNC(=N)N)NC(=O)[C@H](CCCNC(=N)N)NC(=O)C(C)(C)NC(=O)[C@H](CC(=O)O)NC(=O)[C@H](CC(C)C)NC(=O)[C@H](Cc1ccc(O)cc1)NC(=O)[C@H](CCCCN)NC(=O)[C@H](CO)NC(=O)[C@H](Cc1ccc(O)cc1)NC(=O)[C@H](CC(=O)O)NC(=O)[C@H](CO)NC(=O)[C@@H](NC(=O)[C@H](Cc1ccccc1)NC(=O)[C@@H](NC(=O)CNC(=O)[C@H](CCNC(C)=O)NC(=O)[C@H](CO)NC(=O)[C@@H](N)Cc1c[nH]cn1)[C@@H](C)O)[C@@H](C)O)C(C)C)C(=O)N[C@@H](CC(=O)O)C(=O)N[C@@H](CCC(=O)O)C(=O)O [SEQ ID NO: 601] | 86%
CCCC[C@H](NC(=O)[C@H](CC(C)C)NC(=O)[C@H](Cc1c[nH]c2ccccc12)NC(=O)[C@H](C)NC(=O)[C@@H](NC(=O)[C@H](Cc1ccccc1)NC(=O)[C@H](CCC(=O)O)NC(=O)[C@H](C)NC(=O)[C@H](C)NC(=O)[C@H](CCCNC(=N)N)NC(=O)[C@H](CCCNC(=N)N)NC(=O)[C@@H](NC(=O)[C@H](CC(=O)O)NC(=O)[C@H](CC(C)C)NC(=O)[C@H](Cc1ccc(O)cc1)NC(=O)[C@H](CCCCN)NC(=O)[C@H](CO)NC(=O)[C@H](Cc1ccc(O)cc1)NC(=O)[C@H](CC(=O)O)NC(=O)[C@H](CO)NC(=O)[C@@H](NC(=O)[C@H](Cc1ccccc1)NC(=O)[C@@H](NC(=O)CNC(=O)[C@H](CSCNC(C)=O)NC(=O)[C@H](CO)NC(=O)[C@@H](N)Cc1c[nH]cn1)[C@@H](C)O)[C@@H](C)O)[C@@H](C)O)C(C)C)C(=O)N[C@@H](CC(=O)O)C(=O)N[C@@H](CCC(=O)O)C(=O)O [SEQ ID NO: 594] | 33%
CCCC[C@H](NC(=O)[C@H](CC(C)C)NC(=O)[C@H](Cc1c[nH]c2ccccc12)NC(=O)[C@H](C)NC(=O)[C@@H](NC(=O)[C@H](Cc1ccccc1)NC(=O)[C@H](CCC(=O)O)NC(=O)[C@H](C)NC(=O)[C@H](C)NC(=O)[C@H](CCCNC(=N)N)NC(=O)[C@H](CCCNC(=N)N)NC(=O)[C@@H](NC(=O)[C@H](CC(=O)O)NC(=O)[C@H](CC(C)C)NC(=O)[C@H](Cc1ccc(O)cc1)NC(=O)[C@H](CCCCN)NC(=O)[C@H](CO)NC(=O)[C@H](Cc1ccc(O)cc1)NC(=O)[C@H](CC(=O)O)NC(=O)[C@H](CO)NC(=O)[C@@H](NC(=O)[C@H](Cc1ccccc1)NC(=O)[C@@H](NC(=O)CNC(=O)[C@H](CCCNC(C)=O)NC(=O)[C@H](CO)NC(=O)[C@@H](N)Cc1c[nH]cn1)[C@@H](C)O)[C@@H](C)O)[C@@H](C)O)C(C)C)C(=O)N[C@@H](CC(=O)O)C(=O)N[C@@H](CCC(=O)O)C(=O)O [SEQ ID NO: 599] | 7%
CCCC[C@H](NC(=O)[C@H](CC(C)C)NC(=O)[C@H](Cc1c[nH]c2ccccc12)NC(=O)[C@H](C)NC(=O)[C@@H](NC(=O)[C@H](Cc1ccccc1)NC(=O)[C@H](CCC(=O)O)NC(=O)[C@H](C)NC(=O)[C@H](C)NC(=O)[C@H](CCCNC(=N)N)NC(=O)[C@H](CCCNC(=N)N)NC(=O)[C@@H](NC(=O)[C@H](CC(=O)O)NC(=O)[C@H](CC(C)C)NC(=O)[C@H](Cc1ccc(O)cc1)NC(=O)[C@H](CCCCN)NC(=O)[C@H](CO)NC(=O)[C@H](Cc1ccc(O)cc1)NC(=O)[C@H](CC(=O)O)NC(=O)[C@H](CO)NC(=O)[C@@H](NC(=O)[C@H](Cc1ccccc1)NC(=O)[C@@H](NC(=O)CNC(=O)[C@H](CC[S+](C)[O-])NC(=O)[C@H](CO)NC(=O)[C@@H](N)Cc1c[nH]cn1)[C@@H](C)O)[C@@H](C)O)[C@@H](C)O)C(C)C)C(=O)N[C@@H](CC(=O)O)C(=O)N[C@@H](CCC(=O)O)C(=O)O (stereo partly shown) [SEQ ID NO: 598] | 7%

same assay, conditions: Table 27, glucagon receptor

SMILES | % activity
CC(=O)NCC[C@H](NC(=O)[C@H](CO)NC(=O)[C@@H](N)Cc1c[nH]cn1)C(=O)NCC(=O)N[C@H](C(=O)N[C@@H](Cc1ccccc1)C(=O)N[C@H](C(=O)N[C@@H](CO)C(=O)N[C@@H](CC(=O)O)C(=O)N[C@@H](Cc1ccc(O)cc1)C(=O)N[C@@H](CO)C(=O)N[C@@H](CCCCN)C(=O)N[C@@H](Cc1ccc(O)cc1)C(=O)N[C@@H](CC(C)C)C(=O)N[C@@H](CC(=O)O)C(=O)NC(C)(C)C(=O)N[C@@H](CCCNC(=N)N)C(=O)N[C@@H](CCCNC(=N)N)C(=O)N[C@@H](C)C(=O)N[C@H](C(=O)N[C@@H](CC(=O)O)C(=O)N[C@@H](Cc1ccccc1)C(=O)N[C@H](C(=O)N[C@H](C(=O)N[C@@H](Cc1c[nH]c2ccccc12)C(=O)N[C@@H](CC(C)C)C(=O)N[C@@H](CC(C)C)C(=O)N[C@@H](CC(=O)O)C(=O)N[C@@H](CCC(=O)O)C(=O)O)[C@@H](C)O)C(C)C)[C@@H](C)O)[C@@H](C)O)[C@@H](C)O (H-HS[Dab](Ac)GTFTSDYSKYLD[Aib]RRATDFVTWLLDE-OH; N-terminus and C-terminus assumed) | 46%
CC(=O)NCC[C@H](NC(=O)[C@H](CO)NC(=O)[C@@H](N)Cc1c[nH]cn1)C(=O)NCC(=O)N[C@H](C(=O)N[C@@H](Cc1ccccc1)C(=O)N[C@H](C(=O)N[C@@H](CO)C(=O)N[C@@H](CC(=O)O)C(=O)N[C@@H](Cc1ccc(O)cc1)C(=O)N[C@@H](CO)C(=O)N[C@@H](CCCCN)C(=O)N[C@@H](Cc1ccc(O)cc1)C(=O)N[C@@H](CC(C)C)C(=O)N[C@@H](CC(=O)O)C(=O)NC(C)(C)C(=O)N[C@@H](CCCNC(=N)N)C(=O)N[C@@H](CCCNC(=N)N)C(=O)N[C@@H](C)C(=O)N[C@@H](CO)C(=O)N[C@@H](CC(=O)O)C(=O)N[C@@H](Cc1ccccc1)C(=O)N[C@H](C(=O)N[C@@H](CO)C(=O)N[C@@H](Cc1c[nH]c2ccccc12)C(=O)N[C@@H](CC(C)C)C(=O)N[C@@H](CC(C)C)C(=O)N[C@@H](CC(=O)O)C(=O)N[C@@H](CCC(=O)O)C(=O)O)C(C)C)[C@@H](C)O)[C@@H](C)O (H-HS[Dab](Ac)GTFTSDYSKYLD[Aib]RRASDFVSWLLDE-OH; N-terminus and C-terminus assumed) | 54%
CC(=O)NCC[C@H](NC(=O)[C@H](CO)NC(=O)[C@@H](N)Cc1c[nH]cn1)C(=O)NCC(=O)N[C@H](C(=O)N[C@@H](Cc1ccccc1)C(=O)N[C@H](C(=O)N[C@@H](CO)C(=O)N[C@@H](CC(=O)O)C(=O)N[C@@H](Cc1ccc(O)cc1)C(=O)N[C@@H](CO)C(=O)N[C@@H](CCCCN)C(=O)N[C@@H](Cc1ccc(O)cc1)C(=O)N[C@@H](CC(C)C)C(=O)N[C@@H](CC(=O)O)C(=O)NC(C)(C)C(=O)N[C@@H](CCCNC(=N)N)C(=O)N[C@@H](CCCNC(=N)N)C(=O)N[C@@H](C)C(=O)N[C@@H](C)C(=O)N[C@@H](CC(=O)O)C(=O)N[C@@H](Cc1ccccc1)C(=O)N[C@H](C(=O)N[C@@H](C)C(=O)N[C@@H](Cc1c[nH]c2ccccc12)C(=O)N[C@@H](CC(C)C)C(=O)N[C@@H](CC(C)C)C(=O)N[C@@H](CC(=O)O)C(=O)N[C@H](C(=O)NCC(=O)N1CCC[C@H]1C(=O)N[C@@H](CO)C(=O)N[C@@H](CO)C(=O)NCC(=O)N[C@@H](C)C(=O)N1CCC[C@H]1C(=O)N1CCC[C@H]1C(=O)N1CCC[C@H]1C(=O)N[C@@H](CO)C(N)=O)[C@@H](C)O)C(C)C)[C@@H](C)O)[C@@H](C)O (H-HS[Dab](Ac)GTFTSDYSKYLD[Aib]RRAADFVAWLLDTGPSSGAPPPS-NH2; N-terminus assumed) | 113%
